In article PMC5628579, “Potent mechanism-based sirtuin-2-selective inhibition by an in situ-generated occupant of the substrate-binding site, “selectivity pocket” and NAD^+-binding site” (Chemical Science, 2017):

Experiments:
[1] = target: T1, SIRT3 (Homo sapiens, UniProt Q9NTG7); assay: Fluor de Lys SIRT3 assay
T1 sequence (Q9NTG7 1-399): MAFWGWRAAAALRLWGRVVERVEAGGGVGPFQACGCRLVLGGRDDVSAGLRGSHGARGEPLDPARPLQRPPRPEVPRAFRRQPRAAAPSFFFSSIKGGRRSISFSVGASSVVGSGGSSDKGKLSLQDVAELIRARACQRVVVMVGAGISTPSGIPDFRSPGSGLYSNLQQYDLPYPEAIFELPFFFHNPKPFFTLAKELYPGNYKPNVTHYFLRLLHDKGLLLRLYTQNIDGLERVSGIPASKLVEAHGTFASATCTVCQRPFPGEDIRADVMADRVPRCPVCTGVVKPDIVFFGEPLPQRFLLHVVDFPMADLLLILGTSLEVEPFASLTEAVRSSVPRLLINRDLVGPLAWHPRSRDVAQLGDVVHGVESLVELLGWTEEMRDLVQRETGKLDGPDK

[2] = HPLC stability under SIRTs assay conditions; format: physicochemical; settings: buffer pH 8.0, 30 °C, 0–200 min
Experimental: HPLC stability of 36 under SIRTs assay conditions
Compound 36 (10 μL, 0.5 mM) in DMSO/buffer (50 mM Tris/HCl, pH = 8.0, 137 mM NaCl, 2.7 mM KCl, 1 mM MgCl2) was added to selected wells, followed by 40 μL of buffer (50 mM Tris/HCl, pH = 8.0, 137 mM NaCl, 2.7 mM KCl, 1 mM MgCl2). The obtained solution was incubated at 30 °C and 250 rpm for 0, 50, 100, 150, and 200 min. At the end of each incubation time, the wells were diluted with CH3CN (50 μL, HPLC grade). The entire volume (100 μL) was transferred to a Cosmospin filter H (0.45 μm) and 20 μL of the filtrate were injected in the HPLC instrument. Column:
(90%), 30–40 min (90–10%). The peak area was determined at 220 nm. […]

[3] = target: T2, SIRT1 (Homo sapiens, UniProt Q96EB6); assay: Fluor de Lys SIRT1 assay
T2 sequence (Q96EB6 1-747): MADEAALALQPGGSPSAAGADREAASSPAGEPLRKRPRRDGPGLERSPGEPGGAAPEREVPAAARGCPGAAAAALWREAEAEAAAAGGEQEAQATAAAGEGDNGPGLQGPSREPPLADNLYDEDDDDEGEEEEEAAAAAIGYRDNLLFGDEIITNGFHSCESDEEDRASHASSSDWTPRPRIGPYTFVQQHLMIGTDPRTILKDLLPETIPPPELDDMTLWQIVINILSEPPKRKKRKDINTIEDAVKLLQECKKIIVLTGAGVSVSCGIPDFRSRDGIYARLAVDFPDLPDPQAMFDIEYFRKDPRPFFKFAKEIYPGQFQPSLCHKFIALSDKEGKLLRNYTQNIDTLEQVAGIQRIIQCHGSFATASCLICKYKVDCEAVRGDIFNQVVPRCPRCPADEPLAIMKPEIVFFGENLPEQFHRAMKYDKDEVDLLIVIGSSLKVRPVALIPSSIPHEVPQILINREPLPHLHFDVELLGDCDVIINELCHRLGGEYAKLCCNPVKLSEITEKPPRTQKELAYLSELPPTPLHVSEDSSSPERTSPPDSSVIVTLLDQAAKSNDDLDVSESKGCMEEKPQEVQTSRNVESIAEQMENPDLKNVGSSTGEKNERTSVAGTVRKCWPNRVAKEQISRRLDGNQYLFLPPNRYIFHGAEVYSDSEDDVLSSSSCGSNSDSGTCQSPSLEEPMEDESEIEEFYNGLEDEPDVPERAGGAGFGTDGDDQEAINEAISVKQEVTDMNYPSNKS

IC50 [1]: 9.49 ± 1.7 µM | inhibition at 1 µM ([1]; read-out: % inhibition at 1 μM SIRT3): 2 ± 1.8% | HPLC stability under SIRTs assay conditions [2]: stable | IC50 [3]: 1560 ± 60 nM | inhibition at 1 µM ([3]; read-out: % inhibition at 1 μM SIRT1): 29.5 ± 2.1%
Structure (SMILES): C[C@H](NC(=O)[C@H](CCCCNC(=S)CNC(=O)c1ccccc1Nc1cccc(OCCc2ccccc2)c1)NC(=O)OCc1ccccc1)C(N)=O [Compound 36]
